Patent US9238040B2, “Chemoprevention of colorectal cancer by mesalamine/sulfasalazine” (RUTGERS, THE STATE UNIVERSITY OF NEW JERSEY, priority 2005, dated 2016)

Columns and labels:
[1] = test system: TC22; test: FACS of TC22 expression in LS180 colon cancer cells (antibody TC22-4); type: cell-based, human; details: 4 hours, Serum Free Media
Description: Specific monoclonal antibodies, CG3 for hTM5 and TC22-4 for TC22 were used against the cells in a fluorescent activated cell sorter (FACS). Reverse transcriptase PCR (RT-PCR) was utilized to quantify the transcription of hTM5 and TC-22. […] Dishes were washed with 10 ml PBS 3 times. Cells were detached with 0.25% trypsin-EDTA and collected. All cells were >90% viable. The cells were washed and then fixed by using 4% paraformaldehyde for 5 minutes. Cells were washed 2 times. Cells were then resuspended and the first antibody was added: MOPC IgM(0.5 mg/mL) 1 μl (1:100), MOPCIgG(0.5 mg/mL) 1 μl (1:100), CG3 IgM(2.4 mg/mL) 1 μL of (2+3 μL Buffer) (1:250) for hTM5, TC22-4 IgG(30 mg/mL) 1 μL of (1+9 uL Buffer) (1:1000) for TC22. The suspension was incubated at 4° C. for 30 minutes, shaken and washed (2 times) with 30 vol. of PBS/0.5 BSA/2 mm EDTA. The second antibody was added: 1 μl tube (1:100) Cy2 (Cyanine)-conj. G-α-M IgM or Cy2 (Cyanine)-conj. G-α-M IgM, then incubated at 4° C. for 30 minutes, shaken and washed (2 times) with 100 vol. buffer 2 times. The cells were then resuspended in 1 ml wash buffer. FACS was used to detect hTM5 and TC22 expression within 1 hour. […] The graphs show the number of cells as a function of fluorescence intensity. LM1 represents the percent of cells present but not expressing TC22. LM2 represents the percent of cells containing TC22.

[2] = test system: LS180 cells; test: Microarray analysis of gene expression in LS180 cells; type: cell-based, human; details: 200 mM, 4 hours and 24 hours, compared with 5-ASA untreated LS180 cells

Nc1ccc(O)c(C(=O)O)c1 [5-ASA, 5-Aminosalicylic Acid]
expression of TC22 (FACS, FIG. 1f) [1]: reduced the expression of TC22
Number of genes down-regulated [2]: >385
Number of genes up-regulated [2]: >194
